pIC50: −log10 of the molar value.
What was measured:
[1] = molecular target: human sodium channel Nav 1.7 (Homo sapiens (Human), UniProt Q15858); assay: Automated whole-cell voltage-clamp (ScreenPatch 384P), Nav 1.7 sodium current, Protocol 2; assay type: cell-based; settings: read-out: Nav1.7 IC50
Description: (§1) Biological assays were performed on Chinese hamster ovary (CHO) cells expressing the human sodium channels Nav 1.8 and Nav 1.7 stably.
(§2) The experimental voltage-clamp protocol using the whole cell configuration was established on the automated ScreenPatch® 384P platform (SP384PE, Nanion Technologies, Livingston, NJ) and recording of the results was performed with a Nanion 384-well Patch Clamp chip (NPC) (Nanion Technologies, Livingston, NJ).
(§3) Compounds of Formula (I), were diluted in eight concentrations in the extracellular solution composed of physiological saline, buffered with HEPES (mM): NaCl, 137; KCl, 4; CaCl2, 3.8; MgCl2, 1; HEPES, 10; Glucose, 10; pH 7.4. The […], 50; CsF, 90; MgCl2, 5; EGTA, 5; HEPES, 10; pH 7.2. The duration of exposure of each compound with the cells expressing Nav 1.7 or Nav 1.8 was at least five minutes and the assays were performed at room temperature.
(§4) The measurements of the sodium currents of Nav 1.8 and Nav 1.7 were obtained using the voltage protocols described below: • Protocol 1: A holding voltage of-90 mV was established followed by a voltage phase of 200 ms to-120 mV, followed by a voltage step of 10 mV for 1 second for Nav 1.8 or 0 mV for Nav 1.7, followed by a step of-100 mV for 20 ms, followed by a step of 20 ms for 10 mV for Nav 1.8 or 0 mV for Nav 1.7 (TP1A) before returning to the holding voltage of-90 mV. • Protocol 2: A holding voltage of-100 mV was established followed by an inactivation voltage step at −40 mV for 8 seconds, followed by a −100 mV step for 20 ms, followed by a 20 ms step for 10 mV for Nav 1.8 or 0 mV for Nav 1.7 (TP1A) before returning to the holding voltage of-100 mV.
(§5) Protocols were repeated at a frequency of 0.1 Hz (Protocol 1) or 0.05 Hz (Protocol 2) and current amplitude was quantified over the TP1A phase log. The variation in the peak amplitude of the current was evaluated according to the Formula described below, after exposure of the cells expressing the channels, at each concentration of the different compounds:
(§6) where ITP1A,basal, and ITP1A,molecule represent the entry peaks of sodium currents into TP1A prior to exposure to the compound and in the presence of the compound, respectively.
(§7) The decrease in peak current amplitude, after exposure of the cells to the compounds, was used to calculate the percent relative blocking of the channels relative to the positive control according to the Formula below: […]
(§8) where % V and % CP represent the averages of the values of current inhibition with a vehicle (DMSO) and positive controls, respectively. The sodium currents of the positive control were considered as 100%.
(§9) where [Test] represents the concentration of the evaluated molecule, IC50 is the concentration of the compound that generates half of the maximum inhibition, N is the Hill's coefficient and % Block′ is the percentage of the sodium channel current (Nav 1.8 and Nav 1.7) inhibited at each concentration of the evaluated molecule. Data were obtained by non linear least squares regression with XL fit for Excel (Microsoft, Redmond, WA).
(§10) Compounds were tested in at least one assay to obtain the IC50 value.

[2] = molecular target: human sodium channel Nav 1.8 (Homo sapiens (Human), UniProt Q9Y5Y9); assay: Automated whole-cell voltage-clamp (ScreenPatch 384P), Nav 1.8 sodium current, Protocol 2; assay type: cell-based; settings: read-out: Nav1.8 IC50
Sequence of human sodium channel Nav 1.8 (Q9Y5Y9 whole entry): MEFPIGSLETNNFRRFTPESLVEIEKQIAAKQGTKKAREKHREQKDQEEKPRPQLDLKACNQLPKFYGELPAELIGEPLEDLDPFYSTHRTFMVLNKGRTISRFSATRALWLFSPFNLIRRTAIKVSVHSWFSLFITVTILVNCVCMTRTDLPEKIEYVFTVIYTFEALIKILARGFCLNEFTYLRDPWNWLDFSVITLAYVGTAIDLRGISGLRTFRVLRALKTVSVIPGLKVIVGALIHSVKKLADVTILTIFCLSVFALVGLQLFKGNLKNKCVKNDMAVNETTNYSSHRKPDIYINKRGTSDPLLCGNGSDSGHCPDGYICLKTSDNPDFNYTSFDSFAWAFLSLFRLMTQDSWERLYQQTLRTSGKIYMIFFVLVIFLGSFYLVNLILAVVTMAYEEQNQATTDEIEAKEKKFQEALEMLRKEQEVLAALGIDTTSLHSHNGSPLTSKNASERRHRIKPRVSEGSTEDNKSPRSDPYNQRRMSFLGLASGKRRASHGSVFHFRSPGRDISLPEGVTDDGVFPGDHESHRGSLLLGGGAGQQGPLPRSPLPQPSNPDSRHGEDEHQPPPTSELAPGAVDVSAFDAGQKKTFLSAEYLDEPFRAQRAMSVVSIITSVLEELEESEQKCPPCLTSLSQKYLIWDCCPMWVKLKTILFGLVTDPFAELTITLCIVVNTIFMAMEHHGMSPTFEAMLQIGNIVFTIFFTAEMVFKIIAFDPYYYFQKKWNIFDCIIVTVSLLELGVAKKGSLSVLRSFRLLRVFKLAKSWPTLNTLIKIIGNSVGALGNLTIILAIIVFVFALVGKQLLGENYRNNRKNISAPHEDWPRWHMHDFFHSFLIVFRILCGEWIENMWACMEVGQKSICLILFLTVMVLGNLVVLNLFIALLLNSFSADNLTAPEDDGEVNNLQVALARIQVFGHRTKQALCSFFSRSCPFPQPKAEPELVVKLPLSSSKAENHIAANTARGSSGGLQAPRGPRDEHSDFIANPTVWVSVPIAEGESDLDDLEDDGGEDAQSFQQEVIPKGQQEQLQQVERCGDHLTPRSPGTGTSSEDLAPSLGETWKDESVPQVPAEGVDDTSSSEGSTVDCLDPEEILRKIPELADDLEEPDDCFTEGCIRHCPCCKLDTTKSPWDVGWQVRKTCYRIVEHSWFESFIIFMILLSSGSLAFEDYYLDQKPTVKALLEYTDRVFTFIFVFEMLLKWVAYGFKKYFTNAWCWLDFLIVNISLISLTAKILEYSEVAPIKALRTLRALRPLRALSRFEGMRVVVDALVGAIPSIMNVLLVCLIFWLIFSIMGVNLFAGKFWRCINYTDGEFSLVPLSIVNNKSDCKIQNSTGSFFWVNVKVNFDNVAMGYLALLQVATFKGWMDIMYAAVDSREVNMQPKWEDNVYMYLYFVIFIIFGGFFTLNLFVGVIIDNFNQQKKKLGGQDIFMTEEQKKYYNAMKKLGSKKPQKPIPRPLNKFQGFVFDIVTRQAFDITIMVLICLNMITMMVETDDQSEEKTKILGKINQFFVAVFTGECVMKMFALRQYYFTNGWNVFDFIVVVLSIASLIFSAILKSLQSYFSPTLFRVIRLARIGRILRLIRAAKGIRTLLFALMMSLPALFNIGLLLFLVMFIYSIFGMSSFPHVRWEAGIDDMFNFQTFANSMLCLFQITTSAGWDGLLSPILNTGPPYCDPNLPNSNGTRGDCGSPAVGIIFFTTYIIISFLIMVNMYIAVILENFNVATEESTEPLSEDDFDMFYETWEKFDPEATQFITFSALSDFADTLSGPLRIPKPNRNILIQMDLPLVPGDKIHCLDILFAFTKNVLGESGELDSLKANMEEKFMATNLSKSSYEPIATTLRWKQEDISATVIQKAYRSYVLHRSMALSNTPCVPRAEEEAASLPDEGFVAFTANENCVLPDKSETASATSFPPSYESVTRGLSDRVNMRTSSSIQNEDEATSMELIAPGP
Description: as §1, §2, §3, §4, §5, §6, §7, §8, §9, §10

Sequence of human sodium channel Nav 1.7 (Q15858 whole entry): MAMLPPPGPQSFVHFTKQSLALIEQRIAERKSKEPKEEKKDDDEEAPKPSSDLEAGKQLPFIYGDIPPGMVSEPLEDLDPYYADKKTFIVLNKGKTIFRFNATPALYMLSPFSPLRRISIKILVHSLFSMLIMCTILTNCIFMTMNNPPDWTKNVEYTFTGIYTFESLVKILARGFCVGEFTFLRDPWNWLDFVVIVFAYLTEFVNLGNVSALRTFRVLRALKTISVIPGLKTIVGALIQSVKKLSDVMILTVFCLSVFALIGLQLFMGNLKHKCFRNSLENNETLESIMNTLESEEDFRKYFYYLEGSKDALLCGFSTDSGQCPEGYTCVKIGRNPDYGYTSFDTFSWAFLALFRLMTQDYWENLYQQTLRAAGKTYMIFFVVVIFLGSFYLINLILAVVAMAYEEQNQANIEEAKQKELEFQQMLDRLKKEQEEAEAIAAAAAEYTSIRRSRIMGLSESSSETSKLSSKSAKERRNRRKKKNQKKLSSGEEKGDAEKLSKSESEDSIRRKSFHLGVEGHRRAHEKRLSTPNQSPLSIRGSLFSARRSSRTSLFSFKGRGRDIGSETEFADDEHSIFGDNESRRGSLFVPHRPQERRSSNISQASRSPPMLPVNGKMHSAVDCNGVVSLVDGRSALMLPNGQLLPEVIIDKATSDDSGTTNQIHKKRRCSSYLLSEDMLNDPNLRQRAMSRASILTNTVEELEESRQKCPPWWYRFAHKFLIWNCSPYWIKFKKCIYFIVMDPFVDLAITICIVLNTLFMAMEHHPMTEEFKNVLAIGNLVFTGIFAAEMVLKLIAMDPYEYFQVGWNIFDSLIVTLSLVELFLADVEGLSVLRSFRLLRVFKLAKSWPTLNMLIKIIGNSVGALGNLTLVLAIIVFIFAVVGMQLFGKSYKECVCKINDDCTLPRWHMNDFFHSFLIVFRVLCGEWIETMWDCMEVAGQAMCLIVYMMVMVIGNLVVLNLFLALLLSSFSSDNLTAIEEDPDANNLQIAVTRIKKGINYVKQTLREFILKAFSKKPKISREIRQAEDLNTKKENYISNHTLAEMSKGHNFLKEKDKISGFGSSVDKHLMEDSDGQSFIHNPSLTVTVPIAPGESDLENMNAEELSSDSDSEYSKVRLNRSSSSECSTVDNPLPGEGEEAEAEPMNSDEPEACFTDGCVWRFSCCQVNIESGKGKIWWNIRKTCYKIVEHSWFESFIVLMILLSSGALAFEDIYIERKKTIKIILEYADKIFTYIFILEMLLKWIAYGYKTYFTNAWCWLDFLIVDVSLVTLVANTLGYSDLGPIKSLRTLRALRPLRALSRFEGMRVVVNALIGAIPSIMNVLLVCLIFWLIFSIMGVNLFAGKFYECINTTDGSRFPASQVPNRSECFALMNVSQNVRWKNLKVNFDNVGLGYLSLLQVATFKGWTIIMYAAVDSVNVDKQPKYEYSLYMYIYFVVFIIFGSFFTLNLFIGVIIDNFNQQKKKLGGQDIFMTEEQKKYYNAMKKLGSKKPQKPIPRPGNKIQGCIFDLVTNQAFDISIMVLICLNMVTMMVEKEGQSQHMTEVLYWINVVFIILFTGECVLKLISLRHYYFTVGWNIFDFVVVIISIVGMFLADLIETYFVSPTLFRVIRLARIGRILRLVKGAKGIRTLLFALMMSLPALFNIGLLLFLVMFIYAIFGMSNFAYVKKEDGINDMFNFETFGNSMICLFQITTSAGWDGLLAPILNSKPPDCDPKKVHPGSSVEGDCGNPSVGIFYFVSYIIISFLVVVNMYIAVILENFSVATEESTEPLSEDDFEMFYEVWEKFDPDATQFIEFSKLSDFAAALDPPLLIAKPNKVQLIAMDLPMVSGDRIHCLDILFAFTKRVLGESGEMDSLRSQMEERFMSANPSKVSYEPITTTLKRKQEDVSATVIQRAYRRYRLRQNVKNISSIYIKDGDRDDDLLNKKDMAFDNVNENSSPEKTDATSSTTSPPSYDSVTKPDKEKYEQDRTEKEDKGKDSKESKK

Row | Structure (SMILES) | pIC50 [1] | pIC50 [2]
1 | COc1ccc(-c2cncc(C(=O)N/N=C/c3ccccc3F)n2)cc1 [Compound 46, (E)-N′-(2-fluorobenzylidene)-6-(4-methoxyphenyl)pyrazine-2-carbohydrazide] | 5.70 | 6.75
2 | COc1ccc(-c2cncc(C(=O)N/N=C/c3ccccc3Cl)n2)cc1 [Compound 47, (E)-N′-(2-chlorobenzylidene)-6-(4-methoxyphenyl)pyrazine-2-carbohydrazide] | 5.85 | 7.09
3 | COc1ccc(-c2cncc(C(=O)N/N=C/c3ccccc3Br)n2)cc1 [Compound 48, (E)-N′-(2-bromobenzylidene)-6-(4-methoxyphenyl)pyrazine-2-carbohydrazide] | 6.10 | 6.63
4 | COc1ccc(-c2cncc(C(=O)N/N=C/c3ccccc3C(F)(F)F)n2)cc1 [Compound 49, (E)-6-(4-methoxyphenyl)-N′-(2-(trifluoromethyl)benzylidene)pyrazine-2-carbohydrazide] | 5.88 | 6.80
5 | COc1ccc(-c2cncc(C(=O)N/N=C/c3ccccc3C)n2)cc1 [Compound 51, (E)-6-(4-methoxyphenyl)-N′-(2-methylbenzylidene)pyrazine-2-carbohydrazide] | 5.86 | 6.88
6 | COc1ccc(-c2cncc(C(=O)N/N=C/c3ccccc3C(C)(C)C)n2)cc1 [Compound 52, (E)-N′-(2-(tert-butyl)benzylidene)-6-(4-methoxyphenyl)pyrazine-2-carbohydrazide] | 5.45 | < 6.00
7 | COc1ccc(-c2cncc(C(=O)N/N=C/c3cccc(F)c3)n2)cc1 [Compound 53, (E)-N′-(3-fluorobnezylidene)-6-(4-methoxyphenyl)pyrazine-2-carbohydrazide] | < 5.00 | 6.36
8 | COc1ccc(-c2cncc(C(=O)N/N=C/c3cccc(Cl)c3)n2)cc1 [Compound 54, (E)-N′-(3-chlorobenzylidene)-6-(4-methoxyphenyl)pyrazine-2-carbohydrazide] | 5.54 | 6.51
9 | COc1ccc(-c2cncc(C(=O)N/N=C/c3cccc(Br)c3)n2)cc1 [Compound 55, (E)-N′-(3-bromobenzylidene)-6-(4-methoxyphenyl)pyrazine-2-carbohydraizde] | 5.66 | 6.32
10 | COc1ccc(-c2cncc(C(=O)N/N=C/c3cccc(C(F)(F)F)c3)n2)cc1 [Compound 56, (E)-6-(4-methoxyphenyl)-N′-(3-(trifluoromethyl)benzylidene)pyrazine-2-carbohydrazide] | 5.26 | 6.34
11 | COc1ccc(-c2cncc(C(=O)N/N=C/c3cccc(C)c3)n2)cc1 [Compound 58, (E)-6-(4-methoxyphenyl)-N′-(3-methylbenzylidene)pyrazine-2-carbohydrazide] | 5.98 | 7.01
12 | COc1ccc(-c2cncc(C(=O)N/N=C/c3cccc(C(C)(C)C)c3)n2)cc1 [Compound 59, (E)-N′-(3-(tert-butyl)benzylidene)-6-(4-methoxyphenyl)pyrazine-2-carbohydrazide] | 5.73 | 6.31
13 | COc1ccc(-c2cncc(C(=O)N/N=C/c3ccc(F)cc3)n2)cc1 [Compound 60, (E)-N′-(4-fluorobenzylidene)-6-(4-methoxyphenyl)pyrazine-2-carbohydrazide] | 5.28 | 6.47
14 | COc1ccc(-c2cncc(C(=O)N/N=C/c3ccc(Cl)cc3)n2)cc1 [Compound 61, (E)-N′-(4-chlorobenzylidene)-6-(4-methoxyphenyl)pyrazine-2-carbohydrazide] | 5.15 | 6.21
15 | COc1ccc(-c2cncc(C(=O)N/N=C/c3ccc(Br)cc3)n2)cc1 [Compound 62, (E)-N′-(4-bromobenzylidene)-6-(4-methoxyphenyl)pyrazine-2-carbohydrazide] | < 5.00 | 6.12
16 | COc1ccc(-c2cncc(C(=O)N/N=C/c3ccc(C(F)(F)F)cc3)n2)cc1 [Compound 63, (E)-6-(4-methoxyphenyl)-N′-(4-(trifluoromethyl)benzylidene)pyrazine-2-carbohydrazide] | < 5.00 | < 6.00

Row | Structure (SMILES) | pIC50 [1] | pIC50 [2]
17 | COc1ccc(-c2cncc(C(=O)N/N=C/c3ccc(N(C)C)cc3)n2)cc1 [Compound 64] | 5.09 | 6.00
18 | COc1ccc(-c2cncc(C(=O)N/N=C/c3ccc(C)cc3)n2)cc1 [Compound 65, (E)-6-(4-methoxyphenyl)-N′-(4-methylbenzylidene)pyrazine-2-carbohydrazide] | 5.18 | 6.10
19 | COc1ccc(-c2cncc(C(=O)N/N=C/c3ccc(C(C)(C)C)cc3)n2)cc1 [Compound 66, (E)-N′-(4-(tert-butyl)benzylidene)-6-(4-methoxyphenyl)pyrazine-2-carbohydrazide] | < 5.00 | < 6.00
20 | CCOc1cc(/C=N/NC(=O)c2cncc(-c3ccc(OC)cc3)n2)cc(OCC)c1 [Compound 67, (E)-N′-(3,5-diethoxybenzylidene)-6-(4-methoxyphenyl)pyrazine-2-carbohydrazide] | 5.71 | 6.13
21 | COc1ccc(-c2cncc(C(=O)N/N=C/c3cc(C(F)(F)F)cc(C(F)(F)F)c3)n2)cc1 [Compound 73, (E)-N′-(3,5-bis(trifluoromethyl)benzylidene)-6-(4-methoxyphenyl)pyrazine-2-carbohydrazide] | < 5.00 | 6.11
22 | COc1ccc(-c2cncc(C(=O)N/N=C/c3cc(C(C)(C)C)cc(C(C)(C)C)c3)n2)cc1 [Compound 76, (E)-N′-(3,5-di-tert-butylbenzylidene)-6-(4-methoxyphenyl)pyrazine-2-carbohydrazide] | < 5.00 | < 6.00
23 | COc1ccc(-c2cncc(C(=O)N/N=C/c3cccnc3)n2)cc1 [Compound 77, (E)-6-(4-methoxyphenyl)-N′-(pyridin-3-ylmethylene)pyrazine-2-carbohydrazide] | < 5.00 | < 6.00
24 | COc1ccc(-c2cncc(C(=O)N/N=C/c3ccc(OC)cc3OC)n2)cc1 [Compound 78, (E)-N′-(2,4-dimethoxybenzylidene)-6-(4-methoxyphenyl)pyrazine-2-carbohyrazide] | 5.15 | 6.08
25 | COc1ccc(-c2cncc(C(=O)N/N=C/c3c(OC)cccc3OC)n2)cc1 [Compound 79, (E)-N′-(2,6-dimethoxybenzylidene)-6-(4-methoxyphenyl)pyrazine-2-carbohydrazide] | < 5.00 | < 6.00
26 | COc1ccc(-c2cncc(C(=O)N/N=C/c3ccc(OC)c(OC)c3OC)n2)cc1 [Compound 82, (E)-6-(4-methoxyphenyl)-N′-(2,3,4-trimethoxybenzylidene)pyrazine-2-carbohydrazide] | 5.56 | < 6.00
27 | CCCCOc1ccc(-c2cncc(C(=O)N/N=C/c3cc(OC)cc(OC)c3)n2)cc1 [Compound 83] | 6.87 | 6.99
28 | CCCCOc1ccc(-c2cncc(C(=O)N/N=C/c3cc(C)cc(C)c3)n2)cc1 [Compound 84, (E)-6-(4-butoxyphenyl)-N′-(3,5-dimethylbenzylidene)pyrazine-2-carbohydrazide] | 6.75 | 6.82
29 | COc1cc(/C=N/NC(=O)c2cncc(-c3ccc(OCC(C)C)cc3)n2)cc(OC)c1 [Compound 85, (E)-N′-(3,5-dimethoxybenzylidene)-6-(4-isobutoxyphenyl)pyrazine-2-carbohydrazide] | 6.80 | 7.50
30 | Cc1cc(C)cc(/C=N/NC(=O)c2cncc(-c3ccc(OCC(C)C)cc3)n2)c1 [Compound 86, (E)-N′-(3,5-dimethylbenzylidene)-6-(4-isobutoxyphenyl)pyrazine-2-carbohydrazide] | 6.85 | 6.68
31 | COc1cc(/C=N/NC(=O)c2cncc(-c3ccc(OC(C)(C)C)cc3)n2)cc(OC)c1 [Compound 87, (E)-6-(4-(tert-butoxy)phenyl)-N′-(3,5-dimethoxybenzylidene)pyrazine-2-carbohydrazide] | 6.58 | 6.35
